Laboratory results as given in PMC8286840, “Identifying SARS-CoV-2 antiviral compounds by screening for small molecule inhibitors of Nsp3 papain-like protease” (Biochemical Journal, 2021).
Counter-ions that a name gives are not always drawn. Like-named read-outs stand apart in the source and are kept apart here.

Experiments:
[1] = target: T1, SARS-CoV-2 PLpro (nsp3 1564–1878) (Severe acute respiratory syndrome coronavirus 2, UniProt P0DTD1); experiment: biochemical; design: FRET-quenched peptide (Pro3) cleavage by PLpro, 10 min pre-incubation, slope over 20 min, normalised to no-compound control; conditions: high concentration screen, read-out: % of control remaining
[2] = target: T1, SARS-CoV-2 PLpro (nsp3 1564–1878); experiment: biochemical; design: FRET-quenched peptide (Pro3) cleavage by PLpro, 10 min pre-incubation, slope over 20 min, normalised to no-compound control; conditions: low concentration screen, read-out: % of control remaining

Ic1ccc(N2CCN(Cc3c[nH]c4ncccc34)CC2)cc1 [L-750,667 trihydrochloride]
remaining activity at 3.75 µM ([1]; Well no.=774): 106%
remaining activity at 1.25 µM ([2]; Well no.=774): 102%

CN[C@@H](C)C(=O)N[C@H]1CN(C(=O)CC(C)C)CC[C@H]2CC[C@@H](C(=O)NC(c3ccccc3)c3ccccc3)N2C1=O [AT-406]
remaining activity at 3.75 µM ([1]; Well no.=5071): 106%
remaining activity at 1.25 µM ([2]; Well no.=5071): 102%

O=C1/C(=C/c2ccc(O)cc2)Oc2cc(O)ccc21 [Hispidol]
remaining activity at 3.75 µM ([1]; Well no.=6966): 93%
remaining activity at 1.25 µM ([2]; Well no.=6966): 95.6%

Cc1cc(COc2nc(N)nc3ccn(Cc4ccccn4)c23)no1 [TLR7 agonist 2]
remaining activity at 3.75 µM ([1]; Well no.=8227): 103%
remaining activity at 1.25 µM ([2]; Well no.=8227): 106%

Nc1cc(=O)[nH]c(N)n1 [2,6-Diamino-4-pyrimidinone]
remaining activity at 3.75 µM ([1]; Well no.=452): 99.9%
remaining activity at 1.25 µM ([2]; Well no.=452): 104%

Nc1ncnc2c1ncn2[C@@H]1O[C@H](COP(=O)(O)CP(=O)(O)OP(=O)(O)O)[C@@H](O)[C@H]1O [alpha,beta-Methylene adenosine 5'-triphosphate dilithium]
remaining activity at 3.75 µM ([1]; Well no.=932): 98.2%
remaining activity at 1.25 µM ([2]; Well no.=932): 101%

Fc1ccc(CN(C2=NCCN2)c2c(Cl)cccc2Cl)cc1 [IMID-4F hydrochloride]
remaining activity at 3.75 µM ([1]; Well no.=718): 96.8%
remaining activity at 1.25 µM ([2]; Well no.=718): 96.3%

CC(C)C(=O)Nc1ncc(-c2cc(C(F)F)nn2-c2c(Cl)cccc2Cl)s1 [BMS-5]
remaining activity at 3.75 µM ([1]; Well no.=2705): 96.9%
remaining activity at 1.25 µM ([2]; Well no.=2705): 100%

Cc1ncc([N+](=O)[O-])n1CCO [Metronidazole]
remaining activity at 3.75 µM ([1]; Well no.=1963): 99.9%
remaining activity at 1.25 µM ([2]; Well no.=1963): 99.6%

CC(C)N(CCNC(=O)CN1CCCC1=O)C(C)C [Pramiracetam]
remaining activity at 3.75 µM ([1]; Well no.=4950): 96.4%
remaining activity at 1.25 µM ([2]; Well no.=4950): 96.1%

CC(=O)Nc1nnc(S(N)(=O)=O)s1 [Acetazolamide]
remaining activity at 3.75 µM ([1]; Well no.=163): 103%
remaining activity at 1.25 µM ([2]; Well no.=163): 101%

NC(=O)c1cc(-c2ccc(S(=O)(=O)[C@H]3CC[C@H](Nc4ccc(C(F)(F)F)cn4)CC3)cc2)ccn1 [CCR6 inhibitor 1]
remaining activity at 3.75 µM ([1]; Well no.=8609): 99%
remaining activity at 1.25 µM ([2]; Well no.=8609): 103%

COc1cnc(-n2cnc(C)n2)c2c1c(C(=O)C(=O)N1CCN(C(=O)c3ccccc3)CC1)cn2COP(=O)(O)O [Fostemsavir]
remaining activity at 3.75 µM ([1]; Well no.=7748): 102%
remaining activity at 1.25 µM ([2]; Well no.=7748): 101%

CNC(=N)NCCC[C@H](N)C(=O)O [NG-Monomethyl-L-arginine acetate]
remaining activity at 3.75 µM ([1]; Well no.=886): 103%
remaining activity at 1.25 µM ([2]; Well no.=886): 102%

Cc1cc(C(C)(C)C)cc(C)c1CC1=NCCN1 [Xylometazoline hydrochloride]
remaining activity at 3.75 µM ([1]; Well no.=1484): 96.2%
remaining activity at 1.25 µM ([2]; Well no.=1484): 96.8%

CCCCCCCCCCCCCCCCOCC(CO)OC(C)=O (centres unmarked) [1-Hexadecyl-2-O-acetyl-glycerol]
remaining activity at 3.75 µM ([1]; Well no.=4238): 98.7%
remaining activity at 1.25 µM ([2]; Well no.=4238): 95.2%

CNCCc1ccccn1 [Betahistine 2HCl]
remaining activity at 3.75 µM ([1]; Well no.=5026): 98.9%
remaining activity at 1.25 µM ([2]; Well no.=5026): 97.2%

NC[C@H](O)c1ccc(O)c(O)c1 [Norepinephrine (bitartrate monohydrate)]
remaining activity at 3.75 µM ([1]; Well no.=6517): 98.7%
remaining activity at 1.25 µM ([2]; Well no.=6517): 101%

CCCC(CCC)C(=O)O [Divalproex sodium]
remaining activity at 3.75 µM ([1]; Well no.=5341): 95.4%
remaining activity at 1.25 µM ([2]; Well no.=5341): 97.2%

Cn1cnc2cc3c(Nc4cccc(Br)c4)ncnc3cc21 [BPIQ-I]
remaining activity at 3.75 µM ([1]; Well no.=2357): 99%
remaining activity at 1.25 µM ([2]; Well no.=2357): 101%

COc1cc(C(=O)OCCCN2CCCN(CCCOC(=O)c3cc(OC)c(OC)c(OC)c3)CC2)cc(OC)c1OC [Dilazep]
remaining activity at 3.75 µM ([1]; Well no.=1931): 99.9%
remaining activity at 1.25 µM ([2]; Well no.=1931): 100%

O=C(CNC(=O)c1cccc(C(F)(F)F)c1)N[C@@H]1CCN(Cc2ccc(Cl)cc2)C1 [Teijin compound 1 hydrochloride]
remaining activity at 3.75 µM ([1]; Well no.=5505): 112%
remaining activity at 1.25 µM ([2]; Well no.=5505): 104%

O=C(Cc1ccc(-c2ccc(OCCN3CCOCC3)cc2)cn1)NCc1ccccc1 [KX2-391]
remaining activity at 3.75 µM ([1]; Well no.=5350): 94.3%
remaining activity at 1.25 µM ([2]; Well no.=5350): 94.7%

Nc1nc(Cl)nc2c1ncn2[C@@H]1O[C@H](CO)[C@@H](O)[C@@H]1F [Clofarabine]
remaining activity at 3.75 µM ([1]; Well no.=1927): 103%
remaining activity at 3.75 µM ([1]; Well no.=8004): 97.4%
remaining activity at 1.25 µM ([2]; Well no.=1927): 103%
remaining activity at 1.25 µM ([2]; Well no.=8004): 98.8%

C=CCSC[C@H](N)C(=O)O [S-Allyl-L-cysteine]
remaining activity at 3.75 µM ([1]; Well no.=5435): 97%
remaining activity at 1.25 µM ([2]; Well no.=5435): 99.1%

CCCCCCCCCCC/C=C\C/C=C\CCCC(=O)O [Eicosa-5,8-dienoic acid (20:2 n-12)]
remaining activity at 3.75 µM ([1]; Well no.=4309): 106%
remaining activity at 1.25 µM ([2]; Well no.=4309): 102%

NC[C@H](O)c1ccc(O)c(O)c1 [Norepinephrine]
remaining activity at 3.75 µM ([1]; Well no.=7015): 103%
remaining activity at 1.25 µM ([2]; Well no.=7015): 106%

COc1ccc(Cl)cc1NC(=O)Nc1cc(C)nc2ccccc12 [N-(5-Chloro-2-methoxyphenyl)-N'-(2-methyl-4-quinolinyl)urea]
remaining activity at 3.75 µM ([1]; Well no.=2626): 101%
remaining activity at 1.25 µM ([2]; Well no.=2626): 100%

CC(C)(Oc1ccc(C(=O)c2ccc(Cl)cc2)cc1)C(=O)O [Fenofibric acid]
remaining activity at 3.75 µM ([1]; Well no.=8204): 104%
remaining activity at 1.25 µM ([2]; Well no.=8204): 106%

COc1ccccc1Oc1c(NS(=O)(=O)c2ccc(C(C)(C)C)cc2)nc(-c2ncccn2)nc1OCCO [Bosentan Hydrate]
remaining activity at 3.75 µM ([1]; Well no.=5273): 95.6%
remaining activity at 1.25 µM ([2]; Well no.=5273): 97.9%

CC(C)c1onc(-c2c(Cl)cccc2Cl)c1COc1ccc(/C=C/c2cccc(C(=O)O)c2)c(Cl)c1 [GW4064]
remaining activity at 3.75 µM ([1]; Well no.=5314): 98.2%
remaining activity at 1.25 µM ([2]; Well no.=5314): 101%

O=C(O)c1cc(=O)[nH]c(=O)[nH]1 [Orotic acid]
remaining activity at 3.75 µM ([1]; Well no.=6207): 99.7%
remaining activity at 1.25 µM ([2]; Well no.=6207): 108%

CCCCCC(O)/C=C/C=C\CCCCCCCC(=O)O (racemic)
remaining activity at 3.75 µM ([1]; Well no.=4382): 96.6%
remaining activity at 1.25 µM ([2]; Well no.=4382): 99.2%

CC(ONC(=O)c1cc(C(F)(F)F)cc(C(F)(F)F)c1)C(=O)Nc1ccc(Cl)cc1 (centres unmarked) [CCG-1423]
remaining activity at 3.75 µM ([1]; Well no.=7811): 101%
remaining activity at 1.25 µM ([2]; Well no.=7811): 99.2%

NCC(O)c1ccc(O)cc1 (centres unmarked) [Octopamine (hydrochloride)]
remaining activity at 3.75 µM ([1]; Well no.=6713): 98.6%
remaining activity at 1.25 µM ([2]; Well no.=6713): 98.8%

Cn1cc(-c2ccc3nnc(Sc4ccc5ncccc5c4)n3n2)cn1 [SGX-523]
remaining activity at 3.75 µM ([1]; Well no.=4665): 106%
remaining activity at 1.25 µM ([2]; Well no.=4665): 104%
